Source: US11839679B2, “Gamma-diketones for treatment and prevention of aging skin and wrinkles” (BioSplice Therapeutics, Inc., priority 2014, dated 2023)

Tested on: fine lines, wrinkles in the outer canthus of the eyes (crow's feet area)
Assay: Change in Roughness and Wrinkle Depth via Visioscan, Example 2
Format: in vivo, human
Conditions: Topical 0.05% in Oil (Cohort 2), 21 test subjects
Source text: Surface Evaluation of Living Skin Visioscan: The Visioscan (Courage and Khazaka) took a direct image of the living skin using a measuring head containing a CCD-camera and two metal halogen lamps positioned opposite each other in order to ensure even illumination of the measuring field on the skin (Skin Pharmacol Appl Skin Physiol (1999), 12(1-2), 1-11 and Cosmetic & Toiletries magazine (2009), 124(6), 51-54). The grey level distribution of the pixels in the image correspond to different phenomena (white pixels represent desquamation on the skin, dark pixels represent lines and wrinkles). The software with the Visioscan automatically calculates skin smoothness, skin roughness, scaliness and wrinkle parameters. Visioscan images were taken at the following time points: Baseline Day 0 (beginning of the study), Week 2, Week 4, Week 8, and Week 12 (end of the test).
The source data was Visioscan and PhotoGrammetrix Image Analysis readings along with subjective assessments, which were totaled and reported as average scores. Photographs were placed side by side as to compare the photographs of before and after application of the test product in the eye area. Wrinkle reduction analysis source data consisted of crow's feet area quantification in relative units (px), collected at baseline and, the week 2, 4, 8 and 12 evaluations. The data obtained via Visioscan and from PhotoGrammetrix Image Analysis was quoted as % differences from baseline at each of the previously described time points. A paired t-test analysis was conducted in order to compare the results of post test product application measurements to baseline measurements where applicable. Statistical significance was established if p≤(α=0.05) was calculated.
Four groups of women were recruited to evaluate and compare the efficacy of four anti-aging test products (targeting the periorbital eye area) intended to reduce the appearance of fine lines, wrinkles in the outer canthus of the eyes (crow's feet area) over a 12 week period. Wrinkle assessment was conducted instrumentally using a Visioscan image analysis system. Effectiveness of the test product was evaluated using panelist self-assessment via questionnaire responses. Each stage in the progression of treatments was photographically documented using High Resolution Scientifically Matched Photography technique. Image analysis was utilized to quantify changes in fine lines and crow's feet condition observed in the Scientifically Matched Photographs.
Subject Selection: • Number: Eighty three subjects (twenty or twenty one per group) to complete the study. • Sex: Females • Race: Caucasian/Asian/Hispanic • Age Range: 40 through 60 years old
Test samples: • Topical 0.15% of Compound #222 in Oil (a 50/50 mixture of Propylene Glycol Dicaprylate/Dicaprate and Caprylic/Capric Triglyceride) (Cohort 1) • Topical 0.05% of Compound #222 in Oil (a 50/50 mixture of Propylene Glycol Dicaprylate/Dicaprate and Caprylic/Capric Triglyceride) (Cohort 2) • Topical 0.15% of Compound #222 in PEG400 (Cohort 3) • Topical 0.05% of Compound #222 in PEG400 (Cohort 4)
The testing protocol and evaluation was the same as in Example 1.

SMILES: O=C(CCC(=O)c1ccc2c(c1)OCO2)c1ccccc1 [#222]
- % Change in Roughness, Mean (Week 8 vs baseline): −32.9%
- % Change in Roughness, Median (Week 8 vs baseline): −33.9%
- % Change in Wrinkle Depth, Mean (Week 8 vs baseline): −58.0%
- % Change in Wrinkle Depth, Median (Week 8 vs baseline): −59.3%
- Change in Roughness, Mean (Week 8 vs baseline): −0.85
- Change in Roughness, Median (Week 8 vs baseline): −0.67
- Change in Wrinkle Depth (×10^4), Mean (Week 8 vs baseline): −0.89 ×10^4
- Change in Wrinkle Depth (×10^4), Median (Week 8 vs baseline): −0.79 ×10^4
- % Change in Roughness, Mean (Week 12 vs baseline): −39.3%
- % Change in Roughness, Median (Week 12 vs baseline): −40.9%
- % Change in Wrinkle Depth, Mean (Week 12 vs baseline): −54.1%
- % Change in Wrinkle Depth, Median (Week 12 vs baseline): −63.5%
- Change in Roughness, Mean (Week 12 vs baseline): −1.01
- Change in Roughness, Median (Week 12 vs baseline): −0.79
- Change in Wrinkle Depth (×10^4), Mean (Week 12 vs baseline): −0.92 ×10^4
- Change in Wrinkle Depth (×10^4), Median (Week 12 vs baseline): −0.85 ×10^4
